Assay results reported in patent US4579947A, “Substituted phenylalkylpiperazinylpropyl (ureas or thioureas) useful for treatment of immunological, inflammatory and allergic disorder” (Boehringer Ingelheim Pharmaceuticals, Inc., priority 1984, dated 1986).
pIC50: −log10 of the molar value.

How the values were obtained:
[1] = system: human leukocytes (basophils); assay: Inhibition of human leukocyte (basophil) histamine release in vitro (rabbit anti-human IgE); format: cell-based; details: Leukocyte, 1 h, Table A, 60 minutes at 37° C., Int. = interference with test procedure, read-out: Inhibition IC50 (histamine release from human leukocytes (basophils))
Protocol: Separation of Leukocytes: A modification of the method of L. Lichtenstein and A. Osler, J.Exp.Med. 120, 507 (1964) was used. Heparinized human blood (80-100 ml) is mixed with 20 ml of saline (0.2%) containing 0.6 gm of dextrose and 1.2 gm dextran in propylene centrifuge tubes. The mixture is kept at ambient temperature for 60-90 minutes to allow the separation of erythrocytes from the platelet-leukocyte-rich supernate. The supernate is removed and centrifuged for 8 minutes at 110×g in cold. The leukocyte pellet is washed 2× with Tris buffer and finally suspended in 150-180 ml Tris-ACM buffer at 1-2×10^6 cells/ml. 2. Reaction Mixture: The reaction is carried out in 12×75 mm plastic tubes at a total volume of 1.25 ml. The reaction medium includes 0.05 ml rabbit anti-human IgE (the antigen), 0.2 ml of the test compound in water at concentrations ranging from 10-1000 μM, and 1.0 ml of the leukocyte suspension. The reaction mixture is incubated in a 37° C. shaking water bath for 60 minutes. Upon completion of the reaction, the tubes are centrifuged and the supernatants collected. The protein is removed from the supernatants by precipitation with 0.2 ml of 8% perchloric acid. 3. Histamine Assay: Histamine release is measured by the automated fluorometric method of W. Siraganian and W. Hook in Chapter 102 of the Manual of Clinical Immunology, 2nd Edition, Edited by R. Rose and H. Friedman, Published by the American Society for Microbiology, Washington, D.C. 1980. Percent inhibition is calculated as follows: [formula] The concentration which causes a 50 percent inhibition (IC50) of histamine release is interpolated from a plot of percent inhibition versus logarithm of drug concentration.

[2] = system: isolated guinea pig ileum; assay: Antagonism of histamine-induced contraction of isolated guinea pig ileum; format: cell-based; details: Cavia porcellus; Table C; histamine final concentration 0.2 μg/ml; read-out: Inhibition IC50 (histamine-induced contraction of isolated guinea pig ileum)
Protocol: The antagonism of the effects of histamine on the contraction of isolated guinea pig ileum by the compounds of formula I can be determined by the procedure of G. Possanza, A. Bauen, and P. Stewart, Int. Arch. Allergy Appl. Immunol., 49, 289 (1975). The degree of inhibition is determined as the difference between the contraction caused by histamine (final concentration 0.2 μg/ml) alone and that seen in the presence of both histamine and the test compound. The inhibitory activity of the test compound is expressed as that concentration of the compound which causes a 50% reduction of the contractile response (IC50).

CNS = assay: Standard mouse neuropharmacological profile; format: in vivo
From the text: With the exception of the compounds wherein R4 is a lower alkyl group from 7 to 12 carbon atoms, the compounds of formula I inhibit in vitro the histamine-induced contraction of isolated guinea pig ileum and are useful in warm-blooded animals for antagonizing the action of histamine at the histamine (H1) receptor. Accordingly, the compounds of formula I can be employed as antihistamine agents for the treatment of allergic disorders, for example allergic rhinitis, vasomotor rhinitis, allergic conjunctivitis, hay fever, urticaria, and food allergies. Certain compounds of formula I lack the CNS side effects, such as sedation, normally associated with antihistamine therapy.

[3] = system: rat peritoneal mast cells; assay: Inhibition of rat peritoneal mast cell histamine release; format: cell-based; details: Table B; in vitro, sheep anti-rat IgE or ovalbumin, 60 minutes at 37° C.; Int. = interference with test procedure
Protocol: Harvest of Peritoneal Mast Cells: After the rats are sacrificed with ether, 20 ml of Minimum Essential Medium (MEM) containing 20 units/ml heparin is injected into the peritoneum. The abdomen is massaged for one minute and the lavage fluid collected. The peritoneal cells are centrifuged at 1800 rpm for 8 minutes in cold. After two washes with Tris A buffer, the cells are resuspended in Tris ACM buffer at 2-33 10^6 cells/ml. 2. Reaction Mixture: The reaction is carried out in 12×75 mm plastic tubes at a total volume of 1.25 ml. The reaction mixture includes 0.5 ml (10-1000 μg) sheep anti-rat IgE or ovalbumin, 0.2 ml of the test compound in water at concentrations ranging from 10-1000 μM, 0.5 ml phosphatidylserine solution (20-60 μg to each tube), and 0.5 ml of cell suspension. The reaction mixture is incubated in a 37° C. shaking water bath for 60 minutes. Upon completion of the reaction, the tubes are centrifuged and the supernatants collected. The protein is removed from the supernatants by precipitation with 0.2 ml of 8% perchloric acid. 3. Histamine Assay: Histamine release is measured by the automated fluorometric method of Siraganian, supra. The concentration which causes a 50% inhibition (IC50) of histamine release is computed as in Part A.

pIC50 [1] | pIC50 [2] | CNS effects (CNS) | Inhibition IC50 (histamine release from rat peritoneal mast cells) [3] | Structure (SMILES)
3.72 | 6.96 | not to exert significant CNS effects | – | CCOC(=O)c1ccc(NC(=O)NCCCN2CCN(Cc3ccc(Cl)cc3)CC2)cc1.Cl [Example 13, 1-{3-[4-(4-Chlorobenzyl)piperazin-1-yl]propyl}-3-(4-ethoxycarbonylphenyl)urea hydrochloride]
< 3.00 | 6.68 | not to exert significant CNS effects | – | Cl.O=C(NCCCN1CCN(Cc2ccc(Cl)cc2)CC1)Nc1ccc(C(=O)O)cc1 [Example 14, 1-{3-[4-(4-Chlorobenzyl)piperazin-1-yl]propyl}-3-(4-carboxyphenyl)urea hydrochloride]
5.00 | 6.89 | – | Int. | CCCCCCNC(=O)NCCCN1CCN(CCCc2ccc(Cl)cc2)CC1.Cl.Cl [Example 25, 1-{3-[4-[3-(4-Chlorophenyl)propyl]piperazin-1-yl]propyl}-3-n-hexylurea dihydrochloride]
